PMC4160109 (Clinical cancer research : an official journal of the …, 2014)

Legend:
advanced solid tumors = details: cited from earlier work
patients = details: cited from earlier work
[1] = tested on: advanced solid malignancies; experiment: Phase I antitumor activity; format: in vivo, human; details: for median time on study: all patients
[2] = Urine PK of oral rigosertib in phase I patients; format: in vivo, human
rats = experiment: Preclinical severely toxic dose in 10% of animals, rats; format: in vivo, rat; details: twice daily
dogs = experiment: Preclinical severely toxic dose in 10% of animals, dogs; format: in vivo, dog
[3] = tested on: patients with advanced solid malignancies; details: in vivo
[4] = Plasma PK of oral rigosertib in phase I patients; format: in vivo, human; details: for CI7F: plasma, mean ± SD

## CC[C@@H]1C(=O)N(C)c2cnc(Nc3ccc(C(=O)NC4CCN(C)CC4)cc3OC)nc2N1C1CCCC1 [BI-2536]
Advanced solid tumors
  phase I CBR: 32%
  phase I PR: 0%
  phase I stable disease: 32%

## Nc1cc(C(F)(F)F)c(-c2cc(N3CCOCC3)nc(N3CCOCC3)n2)cn1 [BKM120]
Advanced solid tumors
  phase I RR: 2.8%

## C=CCN(/C=C1/C(=O)O[C@H](COC)[C@@]2(C)C1=C(O)C(=O)C1=C2[C@H](OC(C)=O)C[C@]2(C)C(=O)CC[C@@H]12)CC=C [PX-866]
Advanced solid tumors
  phase I RR: 0%
patients
  hyperglycemia: do not cause hyperglycemia

## COc1ccc(Cl)c(Nc2nc3ccccc3nc2NS(=O)(=O)c2cccc(NC(=O)C(C)(C)N)c2)c1 [XL147]
patients
  hyperglycemia: do not cause hyperglycemia

## COc1cc(OC)c(/C=C/S(=O)(=O)Cc2ccc(OC)c(NCC(=O)O)c2)c(OC)c1 [rigosertib, sodium (E)-2-{2-methoxy-5-[(2′,4′ ,6′-trimethoxys-tyrylsulfonyl)methyl]phenylamino}acetate]
[1]; 2/46 evaluable patients, all dose levels
  overall response rate (RR): 4.3%
[1]; 8 patients with stable disease for 12 or more weeks, range
  duration of stable disease: 12–36 weeks
[1]; 10/46 evaluable patients, stable disease ≥ 12 weeks
  clinical benefit rate (CBR = CR + PR + stable disease): 21.7%
[1]; all dose levels
  patients with stable disease for ≥ 12 weeks: 8
[1]
  median time on study: 2 cycles
[1]; range, 1–101+
  median time on study: 6 weeks
[1]; one patient, platinum-refractory HPV-positive HNSCC, 560 mg twice daily
  best response: partial response
[1]; patient with CR, HPV-negative HNSCC, 280 mg twice daily
  time on study: ≥ 101 weeks
[1]; patient with PR, HPV-positive HNSCC, 560 mg twice daily
  time on study: 50 weeks
[1]; patient with PR, HPV-positive HNSCC, 560 mg twice daily, cycle 5
  tumor size decrease from its maximum: 40%
[2]; nonsymptomatic patients, mean (SD 2.8)
  24-hour urine excretion: 18.7 mg
[2]; patients with urinary symptoms, mean (SD 7.9)
  24-hour urine excretion: 16.6 mg
rats
  severely toxic dose in 10% of animals: 75 mg/kg
dogs; 60 kg human
  human equivalent of severely toxic dose in 10% of dogs and rats: 12.2 mg/kg
dogs; 60 kg human with a safety factor of 10
  human equivalent of severely toxic dose in 10% of dogs and rats: 73 mg
dogs; dogs, twice daily
  severely toxic dose in 10% of animals: 75 mg/kg
[3]; human
  Fatigue, treatment-related AE (patients): 1
  Hematuria, treatment-related AE (patients): 2
  Pelvic pain, treatment-related AE (patients): 1
  median time to onset of urinary symptoms: 4 weeks
  patients experiencing serious AEs: 13
  patients with doses held for toxicity: 14
  patients with doses reduced for toxicity: 13
  patients with grade 2 or 3 urinary symptoms: 15
  patients with serious AE considered possibly drug-related: 1
  time to resolution of urinary symptoms after drug discontinuation: ≤ 14 days
[3]; human, 21 days
  Patients with a DLT: 2
  patients with a DLT: 1
[3]; human, po, 21 days
  recommended phase II dose (RP2D): 560 mg
[3]
  patients with grade 3 nonhematologic toxicity: Seven
  tolerability of dose level: considered intolerable
[3]; po
  Dose-limiting toxicities: hematuria and dysuria
[4]; oral 70-700 mg twice daily
  plasma pharmacokinetics, dose dependence: linear and dose proportional
[4]; 70 mg twice daily oral, Day 1 cycle 1, n = 3
  CI7F: 71.54 ±42.87 I7h
[4]; 140 mg twice daily oral, Day 1 cycle 1, n = 4
  CI7F: 171.29 ± 155.74 I7h
[4]; 140 mg twice daily oral, Day 21 cycle 1, n = 4
  CI7F: 55.64 ± 36.62 I7h
[4]; 280 mg twice daily oral, Day 1 cycle 1, n = 5
  CI7F: 122.84 ± 123.67 I7h
[4]; 280 mg twice daily oral, Day 21 cycle 1, n = 3
  CI7F: 127.45 ±66.13 I7h
[4]; 560 mg twice daily oral, Day 1 cycle 1, n = 32
  CI7F: 93.28 ± 58.24 I7h
[4]; 560 mg twice daily oral, Day 21 cycle 1, n = 24
  CI7F: 116.33 ±56.32 I7h
[4]; 700 mg twice daily oral, Day 1 cycle 1, n = 7
  CI7F: 64.62 ± 34.70 I7h
[4]; 700 mg twice daily oral, Day 21 cycle 1, n = 2
  CI7F: 149.9 ±51.79 I7h
